Like-named read-outs stand apart in the source and are kept apart here. Ends that are not written are not given here. Peptide text beside a SMILES is read from it.
Experiments:
ACE [1] = molecular target: T1, ACE (Homo sapiens, UniProt P12821); assay: In vitro simulated gastrointestinal digestion, then ACE inhibition; assay type: biochemical; conditions: 1 mg/mL, read-out: inhibition rate against ACE
T1 construct: purchased Sigma Co., St. Louis, Missouri, United States
Protocol: (§1) According to the experimental method of Yu Fu et al. ([8]), with slight changes, 50 μL ACE (0.1 U/mL, prepared from borate buffer with pH 8.3 and 80 mM), 50 μL FAPGG (1 mM), and 100 μL borate buffer (80 mM, pH 8.3) were added to a 96-well plate. Then, 100 μL borate buffer was replaced with 1 mg/mL sample, which are three groups of parallel samples, and the initial absorbance values a1 and b1 were measured at 340 nm. Then, the plate was placed at 37°C and reacted for 30 min. The absorbance values a2 and b2 were measured at 340 nm (Multiskan GO, Thermo Scientific, Waltham, MA, USA). The absorbance value was incorporated into the following formula to calculate the inhibition rate of polypeptide against ACE activity:
(§2) Simulated GI digestion through an in vitro pepsin–pancreatin hydrolysis method was carried out ([23]). The oligopeptides GLLGY, HWP, and VYGF were re-dissolved (3% w/v in distilled water) and adjusted to pH 2.0 with 1 M HCl. Then, pepsin (4% weight as received/weight of protein in the powder) was added. The mixture was incubated at 37°C for 2 h. The pH was then adjusted to 5.3 with 0.9 M NaHCO3 solution and further to pH 7.5 with 1 M NaOH. Pancreatin was added (4% weight as received/weight of protein in the powder), and the mixture was further incubated at 37°C for 2 h. To terminate the digestion, the test tubes were kept in boiling water for 10 min. The gastric digests (GDs) and gastric-intestinal digests (GIDs) were obtained through centrifugation (8000 × g, 10 min, 4°C), and then, the supernatants were collected, lyophilized, sealed in plastic bags, and stored at 4°C until further analysis. The ACE and pancreatic lipase inhibitory activities of GDS and GID were measured at a concentration of 1 mg/mL, and the results were expressed as activity (%) relative to that without any treatment (control group, 100%). All determinations were made in triplicate.

ACE [2] = molecular target: T1, ACE; assay: ACE inhibitory activity of peptides (FAPGG substrate, absorbance 340 nm); assay type: biochemical
Protocol: (§3) The polypeptide was synthesized by Hangzhou Dangang Biotechnology Co., Ltd (Hangzhou, China). Human ACE, N-[3-(2-furanyl) acryloyl]-l-phenylalanyl glycyl glycine (FAPGG), p-nitrophenyl butyrate (pNPB), and pancreatic lipase were purchased from Sigma Co., St. Louis, Missouri, United States.
as §1
(1) ACEinhibitionrate (%)=(A-B)/A×100
Where a1 and b1 are initial absorbance values of the blank and sample groups, respectively. a2 and b2 are absorbance values of the blank and sample groups after the reaction, respectively. A = a1–a2; B = b1–b2.

ACE [3] = molecular target: T1, ACE; assay: Inhibitory kinetic analysis of ACE (Lineweaver-Burk); assay type: biochemical; conditions: sample 1 mg/mL, FAPGG 0.2-1 mM; read-out: inhibitory binding constant (Ki), ACE
Protocol: (§4) The inhibition kinetics of oligopeptides GLLGY, HWP, and VYGF on ACE and pancreatic lipase were tested to determine their efficiencies. For the ACE inhibition test, the concentration of the samples GLLGY, HWP, and VYGF was 1 mg/mL, and the concentrations of the substrate FAPGG were 0.2, 0.4, 0.6, 0.8, and 1 mM. For the pancreatic lipase inhibition test, the sample HWP concentration was 1 mg/mL and the substrate pNPB concentrations were 1, 2, 3, and 5 mM. The initial velocity data were used to construct the Lineweaver–Burke plots to determine the enzyme Km (Michaelis constant), Vmax (maximum velocity), and Ki (inhibitory binding constant) ([8], [22]).

pancreatic lipase [4] = molecular target: T2, pancreatic lipase (Sus scrofa, UniProt P00591); conditions: cited from earlier work
T2 construct: purchased Sigma Co., St. Louis, Missouri, United States
T2 sequence (P00591 1-450): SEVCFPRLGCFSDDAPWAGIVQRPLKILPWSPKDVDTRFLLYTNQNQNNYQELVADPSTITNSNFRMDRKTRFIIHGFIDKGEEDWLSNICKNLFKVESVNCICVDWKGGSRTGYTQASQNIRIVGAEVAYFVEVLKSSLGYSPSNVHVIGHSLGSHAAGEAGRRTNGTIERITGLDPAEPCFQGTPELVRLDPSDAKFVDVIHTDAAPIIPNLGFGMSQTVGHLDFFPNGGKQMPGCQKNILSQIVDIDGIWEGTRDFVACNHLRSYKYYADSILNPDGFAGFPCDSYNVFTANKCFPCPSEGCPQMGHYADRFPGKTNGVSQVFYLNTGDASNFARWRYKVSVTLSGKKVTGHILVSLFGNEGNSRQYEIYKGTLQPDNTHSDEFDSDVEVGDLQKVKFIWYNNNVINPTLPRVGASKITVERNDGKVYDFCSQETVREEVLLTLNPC

pancreatic lipase [5] = molecular target: T2, pancreatic lipase; assay: Pancreatic lipase inhibitory activity of peptides (pNPB substrate, absorbance 405 nm); assay type: biochemical
Protocol: as §3
(§5) According to the method of Magdalena mendoza-s á nchez ([1]). In the blank group, 100 μL of 0.1 M sodium phosphate buffer (pH 7.2), 50 μL pNPB (5 mM), and 50 μL pancreatic lipase (0.2 U/mL) were added to a 96-well plate. In the blank control group, 150 μL sodium phosphate buffer and 50 μL pNPB were added to the 96-well plate. In the sample group, 50 μL sodium phosphate buffer, 50 μL pNPB, 50 μL sample (1 mg/mL), and 50 μL pancreatic lipase were added to the 96-well plate. For the sample blank group, 100 μL sodium phosphate buffer, 50 μL pNPB, and 50 μL sample were added to the 96-well plate. At 37°C, the absorbance values A, B, C, and D were measured at 405 nm after 30 min of reaction. The absorbance values were incorporated into the following formula to calculate the inhibition rate of polypeptide against pancreatic lipase activity:
(2) Pancreaticlipaseinhibitionrate (%)=(1-C-D/A-B)×100
Where A, B, C, and D are absorbance values of the blank, blank control, sample, and sample blank groups, respectively.

pancreatic lipase [6] = molecular target: T2, pancreatic lipase; assay: In vitro simulated gastrointestinal digestion, then pancreatic lipase inhibition; assay type: biochemical; conditions: 1 mg/mL, read-out: inhibition rate against pancreatic lipase
Protocol: as §5, §2

pancreatic lipase [7] = molecular target: T2, pancreatic lipase; assay: Inhibitory kinetic analysis of pancreatic lipase (Lineweaver-Burk); assay type: biochemical; conditions: sample 1 mg/mL, pNPB 1-5 mM; read-out: inhibitory binding constant (Ki), pancreatic lipase
Protocol: as §4

T1 sequence (P12821 30-1306): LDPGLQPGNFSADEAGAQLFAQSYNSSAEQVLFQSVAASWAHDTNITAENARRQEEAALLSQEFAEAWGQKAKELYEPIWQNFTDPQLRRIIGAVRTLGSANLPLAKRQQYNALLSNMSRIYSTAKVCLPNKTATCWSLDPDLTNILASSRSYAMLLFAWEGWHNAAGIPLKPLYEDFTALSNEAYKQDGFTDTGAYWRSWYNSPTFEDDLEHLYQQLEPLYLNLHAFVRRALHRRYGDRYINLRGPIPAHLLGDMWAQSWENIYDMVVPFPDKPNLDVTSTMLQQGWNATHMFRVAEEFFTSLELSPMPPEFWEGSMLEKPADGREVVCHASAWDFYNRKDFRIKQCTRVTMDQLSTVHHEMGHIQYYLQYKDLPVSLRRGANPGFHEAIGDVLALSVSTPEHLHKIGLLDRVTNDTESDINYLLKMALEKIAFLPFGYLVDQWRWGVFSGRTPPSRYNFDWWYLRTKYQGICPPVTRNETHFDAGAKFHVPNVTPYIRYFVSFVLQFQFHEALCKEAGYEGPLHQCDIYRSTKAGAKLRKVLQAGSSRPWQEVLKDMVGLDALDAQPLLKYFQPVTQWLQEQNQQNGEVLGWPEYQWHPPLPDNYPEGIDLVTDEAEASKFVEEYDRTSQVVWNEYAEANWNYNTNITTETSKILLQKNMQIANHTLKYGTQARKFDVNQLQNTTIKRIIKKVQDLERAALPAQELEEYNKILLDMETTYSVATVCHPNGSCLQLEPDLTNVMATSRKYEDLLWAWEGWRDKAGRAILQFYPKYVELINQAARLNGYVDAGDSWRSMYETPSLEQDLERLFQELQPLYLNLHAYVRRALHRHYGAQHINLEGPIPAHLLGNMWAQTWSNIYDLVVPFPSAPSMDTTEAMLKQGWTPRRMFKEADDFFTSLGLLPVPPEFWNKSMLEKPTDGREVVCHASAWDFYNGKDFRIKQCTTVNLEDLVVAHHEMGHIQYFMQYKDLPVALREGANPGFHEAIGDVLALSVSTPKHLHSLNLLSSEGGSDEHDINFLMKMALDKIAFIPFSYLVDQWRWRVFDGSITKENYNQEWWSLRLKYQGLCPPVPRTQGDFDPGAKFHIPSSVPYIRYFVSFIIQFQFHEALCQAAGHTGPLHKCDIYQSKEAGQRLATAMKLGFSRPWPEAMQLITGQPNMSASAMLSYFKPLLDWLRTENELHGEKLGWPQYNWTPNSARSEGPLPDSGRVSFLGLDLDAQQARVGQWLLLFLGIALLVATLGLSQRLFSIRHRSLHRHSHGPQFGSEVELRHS

Compound | inhibition at 1000 µg/mL (ACE [1]; after GI digestion) [%] | inhibition at 1000 µg/mL (ACE [1]; after gastric digestion) [%] | inhibition at 1000 µg/mL (ACE [1]; without GI digestion) [%] | IC50 (ACE [2]) [µM] | Ki (ACE [3]) [µM] | other results
GLLGY [GLLGY] | 51.3 | 52.6 | 55.8 | 1920 | 1570 | –
CC(C)[C@H](N)C(=O)N[C@@H](Cc1ccc(O)cc1)C(=O)NCC(=O)N[C@@H](Cc1ccccc1)C(=O)O [VYGF] (H-VYGF-OH) | 49.1 | 50.9 | 54.8 | 2060 | 933 | –
Leu-Pro | – | – | – | – | – | pancreatic lipase inhibitory activity (pancreatic lipase [4]; peptide of bovine and camel casein hydrolysates): exhibits pancreatic lipase inhibitory activity
VSTDVNIE [cocoa peptide] | – | – | – | – | – | inhibitory effect on pancreatic lipase (pancreatic lipase [4]; cocoa peptides): had inhibitory effect
N[C@@H](Cc1c[nH]cn1)C(=O)N[C@@H](Cc1c[nH]c2ccccc12)C(=O)N1CCC[C@H]1C(=O)O [HWP] (H-His-Trp-Pro-OH) | 53.6 | 54.4 | 57 | 2280 | 1340 | inhibition at 1000 µg/mL (pancreatic lipase [5]; at 1 mg/mL, read-out: pancreatic lipase inhibition rate): 20%; IC50 (pancreatic lipase [5]; gradient test of concentration, Figure 1C): 9010 µM; inhibition at 1000 µg/mL (pancreatic lipase [6]; after GI digestion): 18.4%; inhibition at 1000 µg/mL (pancreatic lipase [6]; after gastric digestion): 19.9%; inhibition at 1000 µg/mL (pancreatic lipase [6]; without GI digestion): 21.5%; Ki (pancreatic lipase [7]): 2580 µM
O=c1cc(-c2ccc(O)cc2)oc2cc(O)cc(O)c12 [apigenin] | – | – | – | – | – | IC50 (pancreatic lipase [4]): 450 ± 30 µM; type of pancreatic lipase inhibition (pancreatic lipase [4]): competitively inhibited
